# Earlier results in publication PMC5763161 (Molecular Therapy, 2017).
# Test system: dystrophin exon skipping
# Conditions: mdx mice
substance,measurement,value
ASSLNIA,delivery or exon-skipping levels when conjugated to a PMO,unable to increase
